The values below come from patent publication US4762823A, “Nucleosides of 5-monofluoromethyluracil and 5-difluoromethyluracil” (Sloan-Kettering Institute for Cancer Research, priority 1985, dated 1988).

Data set [1] in a line: Direct cellular cytotoxicity in uninfected control wells. In kind it is cell-based, human. As to conditions: foreskin cell monolayers; uninfected human foreskin monolayers; tenfold dilutions; 2 days; read-out: Toxic Concentration. On the procedure:
(§1) Each of the nucleosides was initially dissolved in a diluent containing 60% propylene glycol and 10% EtOH; subsequent dilutions used maintenance culture medium. Agents were assessed at tenfold dilutions with final concentrations ranging from 10,000 to 0.01 micromolar. Confluent human foreskin monolayers were maintained in 96-well microtiter plates using Eagle's Minimal Essential Medium supplemented with 2% fetal bovine serum, antibiotics and glutamine using standard methods.^40 Prior to virus inoculation, the medium was removed from each well and replaced with 100 μL of agent diluted in maintenance medium with differing concentrations in each horizontal row, beginning with the highest concentration in the upper row, with subsequent tenfold dilutions in the next rows and the last (control) row fed with agent-free maintenance medium. The virus inocula were then added, suspended in 100 μL of […] medium. A high-dose inoculum which induced nearly confluent (100%) cytopathic effect (CPE) two days later was added to the first five vertical columns of the plate (1-5) and, similarly, a low-dose inoculum inducing approximately 50% CPE in each well two days later was added to the next five vertical columns (6-10). To the last two columns, virus-free medium was added to serve as uninfected control wells in order to assess direct cellular cytotoxicity at each agent dilution. The plates were then incubated at 36.5° C. in 5% CO2 in air for two days, at which time they were read. The cytopathology of each well was read using an inverted microscope and scored from 0 to 4 (0=no CPE and 4=>95% CPE); for marginal or equivocal readings a+ or - is affixed to each score. […] The mean score of each five wells in a row receiving a given agent dilution and virus inoculum was then calculated and compared with an appropriate control row receiving no agent. […] When the value fell between two rows, simple arithmetic interpolation was done to calculate the agent concentrate at the point on a slope between the mean scores in the rows above and below this point. The IC values of each agent using the high and low virus inocula were then averaged yielding a final mean IC which was expressed as a micromolar drug concentration.

The next data set concerns HSV-1. Kind of data set: Antiherpes activity, inhibition of cytopathic effect (CPE), HSV-1. As to conditions: Human alphaherpesvirus 1, 48 h, human foreskin monolayers, mean IC of high and low virus inocula, CPE score lowered by 10 scoring units vs control, 2 days, read-out: Inhibitory Concentration (μM) HSV-1. In kind it is cell-based. On the procedure: as §1
The test system of the next data set is HSV-2. Put plainly: Antiherpes activity, inhibition of cytopathic effect (CPE), HSV-2. The format is cell-based. As to conditions: Human alphaherpesvirus 2, 48 h, human foreskin monolayers, mean IC of high and low virus inocula, CPE score lowered by 10 scoring units vs control, 2 days, read-out: Inhibitory Concentration (μM) HSV-2. Here is the method: as §1
On the technique in general: Cytopathic effects are the visible damage that an infection or toxin causes in cultured cells.

The conditions of data set [2]: cited from earlier work.
The next data set relates to herpes simplex. As to conditions: cited from earlier work.
The next data set deals with many tumor systems. Conditions: Heidelberger, 1965; 1970; cited from earlier work.
For the next data set, the system named is herpes. Put plainly: Antiherpes activity. In kind it is cell-based. As to conditions: statement in words on Table 1. On the procedure: Each of the nucleosides was initially dissolved in a diluent containing 60% propylene glycol and 10% EtOH; subsequent dilutions used maintenance culture medium. Agents were assessed at tenfold dilutions with final concentrations ranging from 10,000 to 0.01 micromolar. […] The plates were then incubated at 36.5° C. in 5% CO2 in air for two days, at which time they were read. The cytopathology of each well was read using an inverted microscope and scored from 0 to 4 (0=no CPE and 4=>95% CPE); for marginal or equivocal readings a+ or - is affixed to each score. […] The mean score of each five wells in a row receiving a given agent dilution and virus inoculum was then calculated and compared with an appropriate control row receiving no agent. […] The IC values of each agent using the high and low virus inocula were then averaged yielding a final mean IC which was expressed as a micromolar drug concentration.

The subject of data set [3] is human foreskin monolayers. Put plainly: Direct cellular cytotoxicity in uninfected control wells. Conditions: statement in words on Table 1. The format is cell-based. Here is the method:
as §1

The conditions of data set [4]: neutral aqueous media; Mertes, et al.; cited from earlier work.

With `CC(=O)OC[C@H]1O[C@@H](n2cc(CF)c(=O)[nH]c2=O)[C@@H](F)[C@@H]1OC(C)=O` [R=CH2 F, R^1=Ac, X=F, 1-(3,5-Di-0-acetyl-2-deoxy-2-fluoro-β-D-arabinofuranosyl)-5-monofluoromethyluracil], the MCC at 48 h in data set [1] is 1 mM. Besides, the figures for the IC (CPE score lowered by 10 units) in the data set on HSV-1 and in the data set on HSV-2 were 2.46 µM and 5.19 µM, respectively.
As to `CC(=O)OC[C@H]1O[C@@H](n2cc(CF)c(=O)[nH]c2=O)C[C@@H]1OC(C)=O` [R=CH2 F, R^1=Ac, X=H, 1-(3',5'-di-0-acetyl-β-D-erythropentofuranosyl)-5-monofluoromethyluracil], the MCC at 48 h in data set [1] stood at 1 mM. In addition, the IC (CPE score lowered by 10 units) in the data set on HSV-1 and in the data set with HSV-2 was > 100 µM throughout.
Take `O=c1[nH]c(=O)n([C@H]2C[C@H](O)[C@@H](CO)O2)cc1CF` [R=CH2 F, R^1=H, X=H, 2'-deoxy-5-monofluoromethyluridine]: the MCC at 48 h in data set [1] was found to be 1 mM. In addition, the IC (CPE score lowered by 10 units) in the data set with HSV-1 and with HSV-2 was > 100 µM in each case.
Turning to `Cc1cn([C@@H]2O[C@H](CO)[C@@H](O)[C@@H]2F)c(=O)[nH]c1=O` [FMAU, 1-(2-Deoxy-2-fluoro-β-D-arabinofuranosyl)thymine, reference compound], the MCC at 48 h in data set [1] is 1 mM. The IC (CPE score lowered by 10 units) worked out at 0.1 µM with HSV-1 and 0.05 µM with HSV-2.
As for `O=c1[nH]c(=O)n([C@H]2C[C@H](O)[C@@H](CO)O2)cc1C(F)(F)F` [F3 TDR, 1-(2'-deoxy-β-D-erythropentofuranosyl)-5-trifluoromethyluracil], in data set [2], the “cytotoxic (reported)” value is on record as “very cytotoxic”. Also, the “activity against herpes simplex” value in the data set with herpes simplex (Heidelberger, 1965, 1970) is listed as “has shown activity”. In the data set on herpes simplex (reported), the “antiherpetic (reported)” value is “antiherpetic”. Further, in the data set on many tumor systems, the “activity against many tumor systems” value is recorded as “has shown activity”.
Consider `CC(=O)OC[C@H]1O[C@@H](n2cc(C(F)F)c(=O)[nH]c2=O)C[C@@H]1OC(C)=O` [R=CHF2, R^1=Ac, X=H, 1-(3',5'-Di-0-acetyl-2'-deoxy-β-D-erythropentofuranosyl)-5-difluoromethyluracil], for which the antiherpes activity result with herpes is on record as “very potent antiherpes activity”. For the same compound, the cytotoxicity result in [3] was “without serious cytotoxicity”. The MCC at 48 h in data set [1] worked out at 1 mM. For the same compound, the figures for the IC (CPE score lowered by 10 units) in the data set on HSV-1 and with HSV-2 were 17 µM and 25.1 µM, respectively.
For the compound `O=c1[nH]cc(C(F)F)c(=O)[nH]1` [5-Difluoromethyluracil], the lability entry in [4] is “extremely labile in neutral aqueous media”.
For the compound `O=c1[nH]c(=O)n([C@@H]2O[C@H](CO)[C@@H](O)[C@@H]2F)cc1C(F)F` [R=CHF2, R^1=H, X=F, 1-(2'-Deoxy-2'-fluoro-β-D-arabinofuranosyl)-5-difluoromethyluracil], the MCC at 48 h in data set [1] came to 1 mM. For the same compound, the IC (CPE score lowered by 10 units) in the data set with HSV-1 was 0.48 µM; in the data set with HSV-2, 1.04 µM.
For `O=c1[nH]c(=O)n([C@@H]2O[C@H](CO)[C@@H](O)[C@@H]2F)cc1CF` [R=CH2 F, R^1=H, X=F, 1-(2'-Deoxy-2'-fluoro-β-D-arabinofuranosyl)-5-monofluoromethyluracil], in that order: 1 mM, 0.21 µM and 0.18 µM.
The corresponding values for `CC(=O)OC[C@H]1O[C@@H](n2cc(C(F)F)c(=O)[nH]c2=O)[C@@H](F)[C@@H]1OC(C)=O` [R=CHF2, R^1=Ac, X=F] are 1 mM, 0.71 µM and 2.16 µM.
For `CC(=O)OC[C@H]1O[C@@H](n2cc(C)c(=O)[nH]c2=O)[C@@H](F)[C@@H]1OC(C)=O` [R=CH3, R^1=Ac, X=F, 1-(3,5-di-0-acetyl-2-deoxy-2-fluoro-β-D-arabinofuranosyl)thymine, reference compound], in that order: 1 mM, 0.44 µM and 1.23 µM.
Take `O=c1[nH]c(=O)n([C@H]2C[C@H](O)[C@@H](CO)O2)cc1C(F)F` [R=CHF2, R^1=H, X=H, 2'-Deoxy-5-difluoromethyluridine]: the antiherpes activity result with herpes is given as “very potent antiherpes activity”. In addition, the cytotoxicity result in data set [3] is recorded as “without serious cytotoxicity”. Further, in [1], the MCC at 48 h was found to be 1 mM. The IC (CPE score lowered by 10 units) with HSV-1 amounted to 1.4 µM; in the data set on HSV-2, 1.66 µM.
